Laboratory results as given in US10077209B2, “Glazing unit comprising a hydrophilic layer having an improved scratch resistance” (SAINT-GOBAIN GLASS FRANCE, priority 2013, dated 2018).

Assay: Solubility of bis-urea monomers in diacetone alcohol (DAA)
Type: physicochemical
Details: solvent diacetone alcohol
Protocol: Three bis-urea monomers were synthesized from toluene-2,4-diisocyanate (TDI) on the one hand, 6-amino-1-hexanol, 2-amino-1-butanol and 2-aminopropanol on the other hand, all purchased from Aldrich. The TDI was stored at 4° C. with the aim of preventing side reactions. The dichloromethane was obtained from VWR and distilled and dried before use. The table below indicates the No. assigned to each bis-urea in the rest of the example, the starting products for its synthesis, a schematic representation of its formula and its solubility in DAA.

Cc1ccc(NC(=O)NCC(C)O)cc1NC(=O)NCC(C)O (stereo not drawn) [Bis-urea1]
Solubility in DAA: 8 % by wt.

CCC(CO)NC(=O)Nc1ccc(C)c(NC(=O)NC(CC)CO)c1 (stereo not drawn) [Bis-urea5]
Solubility in DAA: 2.4 % by wt.

Cc1ccc(NC(=O)NCCCCCCO)cc1NC(=O)NCCCCCCO [Bis-urea4]
Solubility in DAA: 7.5 % by wt.
